Measurements published in ChEMBL document CHEMBL1150699, “Characterization of an anti-tuberculosis resin glycoside from the prairie medicinal plant Ipomoea leptophylla” (2003).
Calls of active or inactive are those of the source. The rule behind the calls is not given here.

System: Mycobacterium tuberculosis
Experiment: Antitubercular activity against Mycobacterium tuberculosis H37Rv at 6.25 ug/ml by BACTEC 460 radiometric assay
Type: functional

CCCCC[C@@H](CCCCCCCCCC(=O)O)O[C@@H]1O[C@H](C)[C@H](O)[C@H](O)[C@H]1O[C@@H]1O[C@@H](C)[C@H](O[C@@H]2O[C@@H](C)[C@H](O[C@@H]3O[C@@H](C)[C@H](O)[C@@H](O)[C@H]3O)[C@@H](O)[C@H]2O[C@@H]2O[C@H](CO)[C@@H](O)[C@H](O)[C@H]2O)[C@@H](O)[C@H]1O
Activity: inactive

CCCCCCCCCCCC(=O)O[C@H]1[C@H](O[C@@H]2[C@@H](O)[C@H]3OC(=O)CCCCCCCCC[C@H](CCCCC)O[C@@H]4O[C@H](C)[C@H](O)[C@H](O)[C@H]4O[C@@H]3O[C@H]2C)O[C@@H](C)[C@H](O[C@@H]2O[C@@H](C)[C@H](OC(=O)CC)[C@@H](O)[C@H]2OC(=O)/C=C/c2ccccc2)[C@H]1O[C@@H]1O[C@H](CO)[C@@H](O)[C@H](O)[C@H]1O
inhibition at 6.25 µg/mL: 13%

CCCCCCCCCCCC(=O)O[C@H]1[C@H](O[C@@H]2[C@@H](O)[C@H]3OC(=O)CCCCCCCCC[C@H](CCCCC)O[C@@H]4O[C@H](C)[C@H](O)[C@H](O)[C@H]4O[C@@H]3O[C@H]2C)O[C@@H](C)[C@H](O[C@@H]2O[C@@H](C)[C@H](OC(=O)CC)[C@@H](O)[C@H]2O)[C@H]1O[C@@H]1O[C@H](CO)[C@@H](O)[C@H](O)[C@H]1O
Activity: inactive

CCCCCCCCCCCC(=O)O[C@H]1[C@H](O[C@@H]2[C@@H](OC)[C@H]3OC(=O)CCCCCCCCC[C@H](CCCCC)O[C@@H]4O[C@H](C)[C@H](OC)[C@H](OC)[C@H]4O[C@@H]3O[C@H]2C)O[C@@H](C)[C@H](O[C@@H]2O[C@@H](C)[C@H](OC(=O)CC)[C@@H](OC)[C@H]2OC(=O)/C=C/c2ccccc2)[C@H]1O[C@@H]1O[C@H](COC)[C@@H](OC)[C@H](OC)[C@H]1OC
Activity: inactive
